This data set is described as follows: Solubility of the drugs in aqueous media. It is filed as physicochemical.

Values after ≈ are worked out from the molar mass of the structure shown. Read-outs that look alike come from different tables or passages of the source.

As to `CCc1cc(Oc2cccc(N(Cc3cccc(OC(F)(F)C(F)F)c3)C[C@@H](O)C(F)(F)F)c2)ccc1Cl` [Drug 1, (2R)-3-[[3-(4-chloro-3-ethylphenoxy)phenyl][[3-(1,1,2,2-tetrafluoroethoxy)phenyl]methyl]amino]-1,1,1-trifluoro-2-propanol], the solubility (phosphate buffered saline, aqueous buffer, PBS, pH 6.5, read-out: solubility in phosphate buffered saline at pH 6.5 (PBS)) was < 0.1 µg/mL.

On to `CC[C@@H]1C[C@H](N(Cc2cc(C(F)(F)F)cc(C(F)(F)F)c2)C(C)=O)c2cc(C(F)(F)F)ccc2N1C(=O)OC(C)C` [Drug 2, [2R,4S]4-[acetyl-(3,5-bis-trifluoromethyl-benzyl)-amino]-2-ethyl-6-trifluoromethyl-3,4-dihydro-2H-quinoline-1-carboxylic acid isopropyl ester], for which the solubility (model fasted duodenal (MFD) solution, fassgf or other biorelevant, MFD solution, read-out: solubility in model fasted duodenal (MFD) solution) is ~11 µg/mL (≈ 18.4 µM).

Regarding `CCOC(=O)N1c2ccc(C(F)(F)F)cc2[C@@H](N(Cc2cc(C(F)(F)F)cc(C(F)(F)F)c2)C(=O)OC)C[C@H]1CC` [Drug 3, [2R,4S]4-[(3,5-bis-trifluoromethyl-benzyl)-methoxycarbonyl-amino]-2-ethyl-6-trifluoromethyl-3,4-dihydro-2H-quinoline-1-carboxylic acid ethyl ester, reference compound], under “water, read-out: solubility in water”, the solubility was < 0.1 µg/mL.

Source of the values: US8703204B2, “Nanoparticles comprising a cholesteryl ester transfer protein inhibitor and anon-ionizable polymer” (Bend Research, Inc., priority 2007, dated 2014).
